Source: patent publication US20220257774A1, “AROMATIC AMINE AR AHD BET TARGETING PROTEIN DEGRADATION CHIMERA COMPOUND AND USE” (HINOVA PHARMACEUTICALS INC., priority 2019, published 2022)
Like-named read-outs stand apart in the source and are kept apart here.

Key:
LNCaP/AR cells = experiment: Inhibition of the proliferation of LNCap/AR cells (CCK-8); type: cell-based; details: read-out: LNCap/AR IC50
How it was run: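 LNCaP/AR cells (1000/well, RPMI1640 + 10% FBS) were treated for 6 days at 37 °C with 9-point 3-fold dilutions from 10 μM final, 0.1% DMSO, in duplicate. Viability was read by CCK-8 absorbance at 450 nm after 1 h, and IC50 came from a dose-response-inhibition fit.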

22RV1 cells = experiment: Inhibition of the proliferation of drug-resistant prostate cancer cell 22RV1 (CCK-8); type: cell-based; details: 22RV1 cells (enzalutamide-resistant), same method
Description: (1) Experimental materials and instruments: LNCaP/AR cell line and 22RV1 cell line (provided by Sichuan Kangcheng Biotechnology Co., Ltd.) Fetal bovine serum FBS (Gibco, Cat. No. 10099-141) 0.01M PBS (Biosharp, Cat. No. 162262) RIPM1640 medium (Hyclone, Cat. No. 308090.01) Penicillin-Streptomycin (Hyclone, Cat. No. SV30010) Cell counting kit-8 (Signalway Antibody, Cat. No. CP002) DMSO (Sigma, Cat. No. D5879) Centrifuge Tube, 15 ml (Excell Bio, Cat. No. CS015-0001) Cell Culture Dish, (Excell Bio, Cat. No. CS016-0128) 96-well cell culture plate (Corning, Cat. No. 3599) Microplate reader (Thermo Multiskan MK3 type)
a. Preparation of Buffer Cell culture medium: RIPM1640 medium, 10% FBS, 1% Pen Strep: PBS buffer: PBS powder was dissolved in 2 L of ultrapure water and sterilized. b. Experimental Procedures 1) LNCaP/AR cells were subcultured in cell culture media, and then the cells in good growth condition were seeded in a 96-well plate at 80 μL/well (1000 cells/well), and cultured overnight in a 37° C., 5% CO2 cell incubator. 2) The drug was prepared into a 10 mM stock solution with dimethyl sulfoxide (DMSO). Prior to use, the stock solution was diluted in a ratio of […] with DMSO, and then diluted at a 3-fold gradient to obtain 9 serial concentrations. Then, each concentration of compound was further diluted in a ratio of 1:200 with the culture medium (to ensure that the DMSO concentration in the culture system was 0.1%), and two wells were set for each concentration. 20 μL of the diluted compound solution was added to the well of the cell culture (with a final concentration of 10 μM, 3.3 μM, 1.1 μM . . . ), and then the plate was gently tapped to thoroughly mix. In addition, the experiment included 3 negative control wells only containing cells and 3 blank control wells only containing culture medium (6 wells were each added with DMSO diluted in a ratio of 1:200 with 20 μL of culture medium). c. Result Detection: 1) After culturing for 6 days, 10 μL of CCK-8 was added to each well, and the plate was further incubated for 1 h in a 37° C., 5% CO2 cell incubator. 2) The absorbance (OD value) was measured at 450 nm with a multifunctional microplate reader. 3) The data was analyzed by the Dose-response-inhibition equation in the software GraphPad Prism5, and the IC50 value was obtained. 2. Biological assay of the inhibition on the proliferation of other drug-resistant prostate cancer cells
The same test method was used to determine the inhibitory activity of the compound according to the present invention against drug-resistant prostate cancer cell 22RV1.

[1] = 144 h, LNCaP/AR cells, 6 days culture, CCK-8
[2] = LNCaP/AR cells, 6 days culture, CCK-8

Compound	IC50 (LNCaP/AR cells; [1]) [nM]	IC50 (22RV1 cells; Homo sapiens) [nM]	IC50 (LNCaP/AR cells; [2]) [nM]	IC50 (22RV1 cells) [nM]	IC50 (LNCaP/AR cells; LNCaP/AR, 144 h) [nM]
Cc1ccc(-c2c(C)noc2C)cc1N(CC1CN(C2CCN(c3ccc4c(c3)CN(C3CCC(=O)NC3=O)C4=O)CC2)C1)c1ccc(C2(C#N)CC2)cc1 (stereo not shown) [Compound 76, 1-(4-((5-(3,5-dimethylisoxazol-4-yl)-2-methylphenyl)((1-(1-(2-(2,6-dioxopiperidin-3-yl)-1-oxoisoindolin-5-yl)piperidinyl-4-yl)azetidin-3-yl)methyl)amino)phenyl)cyclopropane-1-carbonitrile]	> 2000	> 2000			
Cc1ccc(-c2c(C)noc2C)cc1N(CC1CCN(C2CCN(c3ccc4c(c3)C(=O)N(C3CCC(=O)NC3=O)C4=O)CC2)CC1)c1ccc(C2(C#N)CC2)cc1 (stereo not shown) [Compound 77, 1-(4-((5-(3,5-dimethylisoxazol-4-yl)-2-methylphenyl)((1′-(2-(2,6-dioxopiperidin-3-yl)-1,3-dioxoisoindolin-5-yl)-[1,4′-bipiperidine]-4-yl)methyl)amino)phenyl)cyclopropane-1-nitrile]		> 2000			> 2000
Cc1ccc(-c2c(C)noc2C)cc1N(CC1CCN(CC2CN(c3ccc4c(c3)C(=O)N(C3CCC(=O)NC3=O)C4=O)C2)CC1)c1ccc(C2(C#N)CC2)cc1 (stereo not shown) [Compound 78, 1-(4-((5-(3,5-dimethylisoxazol-4-yl)-2-methylphenyl)((1-((1-(2-(2,6-dioxopiperidin-3-yl)-1,3-dioxoisoindolin-5-yl)azetidin-3-yl)methyl)piperidin-4-yl)methyl)amino)phenyl)cyclopropane-1-carbonitrile]	> 2000	> 2000			
Cc1ccc(-c2c(C)n[nH]c2C)cc1N(CCCCCOCC(=O)N[C@H](C(=O)N1C[C@H](O)C[C@H]1C(=O)N[C@@H](C)c1ccc(-c2scnc2C)cc1)C(C)(C)C)c1ccc(C#N)c(Cl)c1 [Compound 79, (2S,4R)-1-((S)-2-(2-((5-((3-chloro-4-cyanophenyl)(5-(3,5-dimethyl-1H-pyrazol-4-yl)-2-methylphenyl)amino)pentyl)oxy)acetylamino)-3,3-dimethylbutyryl)-4-hydroxy-N—((S)-1-(4-(4-methylthiazol-5-yl)phenyl)ethyl)pyrrolidinyl-2-formamide]			101 to 500	> 2000	
CC(=O)O[C@@H]1C[C@@H](C(=O)N[C@@H](C)c2ccc(-c3scnc3C)cc2)N(C(=O)[C@@H](NC(=O)COCCCCCN(c2ccc(C#N)c(Cl)c2)c2cc(-c3c(C)n[nH]c3C)ccc2C)C(C)(C)C)C1 [Compound 80]			501 to 2000	> 2000	
Cc1ccc(-c2c(C)noc2C)cc1N(CC(C)O[C@@H]1CCN(c2ccc3c(c2)C(=O)N(C2CCC(=O)NC2=O)C3=O)C1)c1ccc(C2(C#N)CC2)cc1 (stereo partly drawn) [Compound 102, 1-(4-((5-(3,5-Dimethylisoxazol-4-yl)-2-methylphenyl)(2-(((3R)-1-(2-(2,6-dioxopiperidin-3-yl)-1,3-dioxoisoindolin-5-yl)pyrrolidin-3-yl)oxy)propyl)amino)phenyl)cyclopropanecarbonitrile]	> 2000	> 2000			
Cc1ccc(-c2c(C)noc2C)cc1N(CC(C)O[C@H]1CCN(c2ccc3c(c2)C(=O)N(C2CCC(=O)NC2=O)C3=O)C1)c1ccc(C2(C#N)CC2)cc1 (stereo partly drawn) [Compound 103, 1-(4-((5-(3,5-Dimethylisoxazol-4-yl)-2-methylphenyl)(2-(((3S)-1-(2-(2,6-dioxopiperidin-3-yl)-1,3-dioxoisoindolin-5-yl)pyrrolidin-3-yl)oxy)propyl)amino)phenyl)cyclopropanecarbonitrile]	> 2000	> 2000			
Cc1ccc(-c2c(C)noc2C)cc1N(CC1CCC(COc2ccc3c(c2)CN(C2CCC(=O)NC2=O)C3=O)CC1)c1ccc(C#N)c(Cl)c1 (stereo not shown) [Compound 105, 2-Chloro-4-((5-(3,5-dimethylitsoxazol-4-yl)-2-methylphenyl)((1r,4r)-4-((2-((2,6-dioxopiperidin-3-yl)-1-oxoisoindolin-5-yl)oxy)methyl)cyclohexyl)methyl)amino)benzonitrile]			501 to 2000	101 to 500	

Now from value to compound, other results behind:

IC50 (LNCaP/AR cells; [1]) [nM]	IC50 (22RV1 cells; Homo sapiens) [nM]	IC50 (LNCaP/AR cells; [2]) [nM]	IC50 (22RV1 cells) [nM]	Compound	IC50 (LNCaP/AR cells; LNCaP/AR, 144 h) [nM]
		501 to 2000	101 to 500	Cc1ccc(-c2c(C)noc2C)cc1N(CC1CCC(COc2ccc3c(c2)C(=O)N(C2CCC(=O)NC2=O)C3=O)CC1)c1ccc(C#N)c(Cl)c1 (stereo not shown) [Compound 104, 2-Chloro-4-((5-(3,5-dimethylisoxazol-4-yl)-2-methylphenyl)((1r,4r)-4-((2-(2,6-dioxopiperidin-3-yl)-1,3-dioxoisoindolin-5-yl)oxy)methyl)cyclohexyl)methyl)amino)benzonitrile]	
> 2000	> 2000			Cc1ccc(-c2c(C)noc2C)cc1N(CC1CCN(c2cc3c(cc2F)C(=O)N(C2CCC(=O)NC2=O)C3=O)C1)c1ccc(C2(C#N)CC2)cc1 (stereo not shown) [Compound 107]	
> 2000	501 to 2000			Cc1ccc(-c2c(C)noc2C)cc1N(CCCCOc1ccc2c(c1)C(=O)N(C1CCC(=O)NC1=O)C2=O)c1ccc(C2(C#N)CC2)cc1 (stereo not shown) [Compound 108, 1-(4-((5-(3,5-Dimethylisoxazol-4-yl)-2-methylphenyl)(4-((2-(2,6-dioxopiperidin-3-yl)-1,3-dioxoisoindolin-5-yl)oxy)butyl)amino)phenyl)cyclopropanecarbonitrile]	
< 100	< 100			Cc1ccc(-c2c(C)noc2C)cc1N(CC1CCN(C2CN(c3ccc4c(c3)C(=O)N(C3CCC(=O)NC3=O)C4=O)C2)CC1)c1ccc(C2(C#N)CC2)cc1 (stereo not shown) [Compound 109, 1-(4-((5-(3,5-Dimethylisoxazol-4-yl)-2-methylphenyl)((1-(1-(2-(2,6-dioxopiperidin-3-yl)-1,3-dioxoisoindolin-5-yl)azetidin-3-yl)piperidin-4-yl)methyl)amino)phenyl)cyclopropanecarbonitrile]	
> 2000	> 2000			Cc1ccc(-c2c(C)noc2C)cc1N(CCOC1(C)CN(c2ccc3c(c2)C(=O)N(C2CCC(=O)NC2=O)C3=O)C1)c1ccc(C2(C#N)CC2)cc1 (stereo not shown) [Compound 110, 1-(4-((5-(3,5-Dimethylisoxazol-4-yl)-2-methylphenyl)(2-((1-(2-(2,6-dioxopiperidin-3-yl)-1,3-dioxoisoindolin-5-yl)-3-methylazetidin-3-yl)oxy)ethyl)amino)phenyl)cyclopropanecarbonitrile]	
> 2000	> 2000			Cc1ccc(-c2c(C)noc2C)cc1N(CCOC1(C)CN(c2cc3c(cc2F)CN(C2CCC(=O)NC2=O)C3=O)C1)c1ccc(C2(C#N)CC2)cc1 (stereo not shown) [Compound 112, 1-(4-((5-(3,5-Dimethylisoxazol-4-yl)-2-methylphenyl)(2-((1-(2-(2,6-dioxopiperidin-3-yl)-6-fluoro-3-oxoisoindolin-5-yl)-3-methylazetidin-3-yl)oxy)ethyl)amino)phenyl)cyclopropanecarbonitrile]	
		101 to 500	101 to 500	Cc1ccc(-c2c(C)noc2C)cc1N(C[C@H]1CC[C@H](Nc2cc3c(cc2F)CN(C2CCC(=O)NC2=O)C3=O)CC1)c1ccc(C2(C#N)CC2)c(Cl)c1 (stereo partly shown) [Compound 114]	
		101 to 500	501 to 2000	Cc1ccc(-c2c(C)noc2C)cc1N(CC1CCC(Nc2cc3c(cc2F)C(=O)N(C2CCC(=O)NC2=O)C3)CC1)c1ccc(C2(C#N)CC2)cc1 (stereo not shown) [Compound 115, 1-(4-((5-(3,5-Dimethylisoxazol-4-yl)-2-methylphenyl)((((1r,4r)-4-((2-(2,6-dioxopiperidin-3-yl)-6-fluoro-1-oxoisoindolin-5-yl)amino)cyclohexyl)methyl)amino)phenyl)cyclopropanecarbonitrile]	
		101 to 500	> 2000	Cc1ccc(-c2c(C)noc2C)cc1N(CC1CCC(Nc2ccc3c(c2)C(=O)N(C2CCC(=O)NC2=O)C3=O)CC1)c1ccc(C2(C#N)CC2)cc1 (stereo not shown) [Compound 116, 1-(4-((5-(3,5-Dimethylisoxazol-4-yl)-2-methylphenyl)((((1r,4r)-4-((2-(2,6-dioxopiperidin-3-yl)-1,3-dioxoisoindolin-5-yl)amino)cyclohexyl)methyl)amino)phenyl)cyclopropanecarbonitrile]	
